Where two headings read alike, the source gives them in different places.
Assays:
[1] = Stability in 45° C. oven, CPP content; assay type: physicochemical; details: raw material, comparison
Procedure: The moisture content, CPP content and redissolving time were determined for CPP freeze-dried composition hydrated with saturated sodium chloride solution in the freeze-drying box, respectively. In addition, the CPP freeze-dried compositions hydrated for 16 h and 24 h were placed in 45° C. oven and sampled for determining CPP contents after 1 week and 2 weeks, respectively.
Moisture content, CPP content and redissolving time were determined for CPP freeze-dried composition hydrated with saturated sodium chloride solution in the dryer, respectively. In addition, the CPP freeze-dried composition hydrated for 16 h was placed in 45° C. oven, sampled after 1 week and 2 weeks, respectively and determined for CPP contents. The CPP freeze-dried composition hydrated for 16 h was placed in 40° C./75% RH stability test chamber, was sampled after 1 month and 3 months, and determined for CPP contents, which were compared with CPP monohydrate obtained by prior art hydrating process.
The moisture content, CPP content and redissolving time were determined for CPP freeze-dried composition hydrated with saturated potassium sulfate solution in the dryer, respectively. In addition, the CPP freeze-dried composition hydrated for 16 h was placed in 45° C. oven and was sampled for determining CPP contents after 1 week and 2 weeks, respectively. […]

[2] = Stability in 40° C./75% RH stability test chamber, CPP content; assay type: physicochemical; details: raw material, comparison
Procedure: The CPP freeze-dried composition hydrated for 16 h was placed in 40° C./75% RH stability test chamber, was sampled after 1 month and 3 months, and determined for CPP contents, which were compared with CPP monohydrate obtained by prior art hydrating process.
The CPP freeze-dried composition hydrated for 16 h was placed in 40° C./75% RH stability test chamber, sampled after 1 month and 3 months for determining CPP contents.

[3] = assay type: physicochemical; details: hydration pressure 50 kPa
[4] = assay type: physicochemical; details: no hydration solution
Procedure: The hydrated CPP freeze-dried composition was stirred by weighting scoop gently until flowable powder comes into being. Then 1-2 g test sample was added on injection plate. Test method and parameters were as follows:
It will be understood by a person of ordinary skill in the art that a common approach to defining the distribution width is to cite three values on the x-axis, the D10, D50, and D90. As used herein, the term (“D50” refers to the median particle diameter, wherein half of the particle population has a diameter below such value. As used herein, the teed “D90,” refers to the particle diameter wherein 90% of the particle population has a diameter below such value. As used herein, the term “D10,” refers to the particle diameter wherein 10% of the particle population has a diameter below such value. PSD results were listed in Table 19.

[5] = assay type: physicochemical; details: strength NA, hydration solution NA
Procedure: BD is calculated by the following formula: BD (g/mL)=W/V0 • wherein • W is the theoretical weight, g; • V0 is the macroscopic volume, mL. • V0 is calculated by the following formula: V0 (mL)=πD^2h/4 • wherein • D is the theoretical inside diameter, cm; • h is the height, cm.

[6] = assay type: physicochemical; details: reconstituted with 0.9% sodium chloride injection to 20 mg/ml
Procedure: Then content and impurity profiles in Room Temperature (RT) and Refrigerator (2-8° C.) are determined respectively.

[7] = Skeletal density (gas pycnometer); assay type: physicochemical; details: no strength, no hydration solution
Procedure: Skeletal Density, also known as true density, is determined at room temperature by Gas Pycnometer (Micromeritics Accupyc II 1340).

[8] = assay type: physicochemical; details: no strength, no hydration solution
Procedure: TD of the test sample is measured as per the Method I described in USP <616> which is obtained by mechanically tapping a graduated measuring cylinder (TAP Density Tester, Sotax TD2) containing the test sample.

[9] = assay type: physicochemical; details: hydration solution NA, 0.9% sodium chloride, 250 rpm, room temperature
Procedure: Then the glass vial was placed on cyclotron (HY-5, Shanghai Suhao intelligent system Co. Ltd) making the glass vial oscillate at 250 rpm at room temperature to dissolve the active ingredient completely. The redissolving time was recorded in Table 18.

SMILES: O=P1(N(CCCl)CCCl)NCCCO1 (stereo not shown) [CPP monohydrate raw material, Cyclophosphamide monohydrate]
- Stability-CPP content % 45° C.-2 weeks [1]: 101.8%
- Stability-CPP content % 40° C./75% RH-3 months [2]: 86.1%

SMILES: O=P1(N(CCCl)CCCl)NCCCO1 (stereo not drawn) [P—[N,N-bis(β-chloroethyl)]-1-oxa-3-aza-2-phosphocyclohexane-P-oxide]
- Content (%) ([3]; 45° C. -1 Week): 82.6%
- Impurity A (%) ([3]; 45° C. -1 Week): 0.65%
- Impurity B (%) ([3]; 45° C. -1 Week): 0.61%
- Impurity D (%) ([3]; 45° C. -1 Week): 0.71%
- Max. individual unknown impurity (%) ([3]; 45° C. -1 Week): 2.01%
- Total impurities (%) ([3]; 45° C. -1 Week): 5.66%
- Content (%) ([3]; 45° C. -2 Weeks): 45.8%
- Impurity A (%) ([3]; 45° C. -2 Weeks): 1.82%
- Impurity B (%) ([3]; 45° C. -2 Weeks): 1.40%
- Impurity D (%) ([3]; 45° C. -2 Weeks): 0.98%
- Max. individual unknown impurity (%) ([3]; 45° C. -2 Weeks): 1.56%
- Total impurities (%) ([3]; 45° C. -2 Weeks): 15.59%
- D10 (μm) [4]: 5.6 μm
- D50 (μm) [4]: 34.8 μm
- D90 (μm) [4]: 262.0 μm
- Bulk Density [5]: 0.6246 g/mL
- Impurity A ([6]; 0 h (initial)): 0.03
- Impurity B ([6]; 0 h (initial)): 0.03
- Impurity D ([6]; 0 h (initial)): 0.00
- Individual unknown impurity ([6]; 0 h (initial)): 0.08
- Total impurities ([6]; 0 h (initial)): 0.15
- Content ([6]; 3 Days (2-8° C.)): 96.7%
- Impurity A ([6]; 3 Days (2-8° C.)): 0.00
- Impurity B ([6]; 3 Days (2-8° C.)): 0.45
- Impurity D ([6]; 3 Days (2-8° C.)): 0.00
- Individual unknown impurity ([6]; 3 Days (2-8° C.)): 0.09
- Total impurities ([6]; 3 Days (2-8° C.)): 0.57
- Content ([6]; 6 Days (2-8° C.)): 95.2%
- Impurity A ([6]; 6 Days (2-8° C.)): 0.00
- Impurity B ([6]; 6 Days (2-8° C.)): 0.64
- Impurity D ([6]; 6 Days (2-8° C.)): 0.00
- Individual unknown impurity ([6]; 6 Days (2-8° C.)): 0.12
- Total impurities ([6]; 6 Days (2-8° C.)): 0.77
- Content ([6]; 6 h (RT)): 95.3%
- Impurity A ([6]; 6 h (RT)): 0.00
- Impurity B ([6]; 6 h (RT)): 0.71
- Impurity D ([6]; 6 h (RT)): 0.00
- Individual unknown impurity ([6]; 6 h (RT)): 0.06
- Total impurities ([6]; 6 h (RT)): 0.81
- Content ([6]; 12 h (RT)): 96.7%
- Impurity A ([6]; 12 h (RT)): 0.00
- Impurity B ([6]; 12 h (RT)): 1.01
- Impurity D ([6]; 12 h (RT)): 0.05
- Individual unknown impurity ([6]; 12 h (RT)): 0.14
- Total impurities ([6]; 12 h (RT)): 1.33
- Content ([6]; 24 h (RT)): 97.0%
- Impurity A ([6]; 24 h (RT)): 0.03
- Impurity B ([6]; 24 h (RT)): 1.82
- Impurity D ([6]; 24 h (RT)): 0.30
- Individual unknown impurity ([6]; 24 h (RT)): 0.47
- Total impurities ([6]; 24 h (RT)): 2.64
- Skeletal Density [7]: 1.4286 g/mL
- Tapped Density [8]: 0.9369 g/mL
- Redissolving Time ([9]; strength 0.5 g): 8.7 min
- Redissolving Time ([9]; strength 1 g): 11.2 min
- Redissolving Time ([9]; strength 2 g): 16.4 min
